The values below come from patent US12384769B2, “Heteroaryl-substituted aminoalkyl azole compounds as pesticides” (Elanco Animal Health GmbH, priority 2019, dated 2025).

Holding throughout (type): in vivo
For one assay, the system named is Ctenocephalides felis. Nature of the assay: Ctenocephalides felis oral test (CTECFE). As to conditions: 48 h, 100 ppm in cattle blood, after 2 days. An outline of the steps: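 About 20 adult unfed fleas fed through parafilm on cattle blood held at 37° C and dosed with compound from a DMSO concentrate; flea chamber at room temperature. Percent mortality scored after 2 days.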

The test system of another assay is Nilaparvata lugens. Nature of the assay: Nilaparvata lugens spray test. Conditions: 96 h, rice plants, after 4 days. The method, then:
Nilaparvata lugens—Spray Test
Solvent: 78.0 parts by weight of acetone • • 1.5 parts by weight of dimethylformamide
Emulsifier: alkylarylpolyglycol ether
To produce a suitable preparation of active compound, 1 part by weight of active compound is mixed with the stated amount of solvents and is diluted with water, containing an emulsifier concentration of 1000 ppm, to the desired concentration. Further test concentrations are prepared by dilution with emulsifier containing water.
Rice plants (Oryza sativa) are sprayed with a preparation of the active ingredient of the desired concentration and the plants are infested with the brown planthopper (Nilaparvata lugens).
After 4 days mortality in % is determined. 100% means all planthoppers have been killed and 0% means none of the planthoppers have been killed.

The subject of assay [1] is Rhipicephalus microplus (strain Parkhurst, resistant against synthetic pyrethroids). Nature of the assay: Rhipicephalus microplus in-vitro contact test, larval cattle tick (BOOPMI Contact). As to conditions: 5 μg/cm^2 (=500 g/ha), after 48 hours, read-out: activity (efficacy, larvae dead or moribund). An outline of the steps:
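Efficacy, expressed as percentage of larvae dead or moribund, is judged by negative geotactic behaviour 48 h after larvae (20-50 per tube) enter tubes whose inner walls carry a dried acetone film of compound, 5 μg/cm² at 900 ppm. Incubation: horizontal, 27 °C, 85% relative humidity.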

The test system of a further assay is Diabrotica balteata. Nature of the assay: Diabrotica balteata spray test. As to conditions: 168 h, 500 g/ha (=160 μg/well), wheat seeds, after 7 days, read-out: activity (efficacy, seedlings grown). The essentials:
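Efficacy was read 7 days after infesting each unit with 10–20 banded cucumber beetle larvae, as % of seedlings growing like untreated, uninfested controls. Before infestation, wheat seeds germinated 1 day on agar (5 per well) were sprayed with the active ingredient. The active was formulated in acetone/DMF and diluted in water containing emulsifier.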

On to `Cc1cc2oc(N[C@@H](C)c3ncnn3-c3ncccn3)nc2cc1Br` [Example I-007], for which the mortality (usually the share of the test organisms that died) at 100 ppm with Ctenocephalides felis was determined as 100%. Moreover, the mortality at 500 g/ha in the assay on Nilaparvata lugens came out at 100%. Moreover, the pest or weed control at 5 µg/cm2 in assay [1] turned out to be 100%.
As to `C[C@H](Nc1nc2ccccc2s1)c1ncnn1-c1ncccn1` [Example I-009], the mortality at 500 g/ha in the assay on Nilaparvata lugens turned out to be 100%. Further, the pest or weed control at 160 µg/disc, 500 g/ha in the assay on Diabrotica balteata was 80%.
